Laboratory results published in patent US20260137828A1, “COMPOSITIONS AND METHODS INVOLVING PROBIOTIC MOLECULES” (MICROSINTESIS INC., priority 2017, published 2026).

Legend:
[1] = test system: Staphylococcus aureus (strain alias LA-414M SPA t034); assay: Cefoxitin MIC testing with and without cell-free supernatant; type: cell-based; details: MRSA LA 414M
Excerpt: (§1) Three methicillin resistant Staphylococci (MRS) strains were used in these experiments: 1) Staphylococcus pseudintermedius (strain alias C260 22-2011 dtqa), a clinical isolate from a dog skin infection; 2) Staphylococcus aureus (strain alias LA-414M SPA t034), a livestock-associated strain isolated from beef purchased from a grocery store in Charlottetown, PEI, Canada; and 3) Staphylococcus aureus (strain alias 81M SPA t008), isolated from poultry meat purchased from a grocery store in Charlottetown, PEI, Canada. All three MRS strains were provided by the Atlantic Veterinary College (AVC) at the University of Prince Edward Island. The methicillin-resistance of these strains was confirmed by AVC staff using an oxacillin disk diffusion method. The strains were originally cultured on sheep blood agar slants, and then transferred to lysogeny broth agar plates. Cefoxitin resuspended in methanol was used for antibiotic resistance testing, and growth was tested in two different media types, standard Lysogeny Broth and standard BBL™ Cation-Adjusted Mueller-Hinton Medium (Becton, Dickinson and Company). The minimum inhibitory concentrations (MICs) of the cefoxitin was determined for each strain in each respective medium in the presence and absence of the cell-free supernatant. Assays were performed according to the Clinical and Laboratory Standards Institute (CLSI) guidelines for MIC testing of Staphylococcal species [CLSI, 2015] as well as the European Committee for Antimicrobial Susceptibility Testing (EUCAST) of the European Society of Clinical Microbiology and Infectious Diseases [EUCAST, 2003].
(§2) The protocol for MIC testing was as follows. The cell-free supernatants were resuspended in the respective media and filter sterilized through a […] pore size filter. The required concentration of dried cell free supernatant was weighed and added at concentrations ranging from 0-60 mg/mL. Cefoxitin was added to obtain final concentrations ranging from 0-250 μg/mL. Cultures of each respective strain were grown overnight in either lysogeny broth or Mueller Hinton for 16-20 hours at 37° C. and 200 rpm shaking in aerobic conditions to achieve optical densities at 600 nm (OD600) of 1.2-1.6. […] The cultures (150 μL) were grown in a 96-well clear flat-bottom microtiter plate. The microtiter plate was then covered in parafilm and incubated at 35° C.±2° C. for 24 hours. Following incubation, microplates were read at 600 nm using a microplate reader. […] The data is the average from two technical replicates from two biological replicates.

[2] = test system: Staphylococcus pseudintermedius (strain alias C260 22-2011 dtqa); assay: as above; type: cell-based; details: MSRP C260, Lysogeny Broth
Excerpt: as §1, §2

[3] = test system: Staphylococcus aureus (strain alias 81M SPA t008); assay: Cefoxitin MIC testing with and without cell-free supernatant or size exclusion fractions; type: cell-based
Excerpt: as §1, §2
For the size exclusion chromatography the sample was separated using a Sephadex G75 resin. The samples were separated and collected into fractions: Fraction 1 (>163000 Da), Fraction 2 (163000-14500 Da), Fraction 3 (14500-1300 Da), Fraction 4 (1300-110 Da), Fraction 5 (110-10 Da).

HilA = assay: qPCR of HilA down-regulation in Salmonella; type: cell-based, Salmonella enterica typhimurium DT104; details: reference 16S, individual synthetic biopeptides, 50 μg per assay
Excerpt: The cell-free supernatant was separated using Sephadex G75 resin. The samples were separated and collected into fractions: Fraction 1 (>163000 Da), Fraction 2 (163000-14500 Da), Fraction 3 (14500-1300 Da), Fraction 4 (1300-110 Da), Fraction 5 (110-10 Da). The samples were collected and assayed by qPCR using Salmonella enterica typhimurium DT104 strain. The down-regulation of HilA was compared to the reference gene 16S.
The active fraction from G75 size exclusion chromatography was further separated using reverse phase chromatography. The fractions from the reverse phase: Fraction 1 (0-2 min), Fraction 2 (2-4 min), Fraction 3 (4-16 min), Fraction 4 (16-32 min), Fraction 5 (32-40 min), Fraction 6 (40-58 min). The fractions were dried and neutralized to remove acetonitrile and trifluoroacetic acid from the solvent. The dried fractions were assayed using the same qPCR assay conditions as above. The fractions were analyzed by de novo sequencing at the University of Guelph Advance Analytical center. The peptides from the active fractions of 6 batches were compared and common peptides from batches were deduced.
Additionally, the 1×sample from each probiotic culture was tested using the Salmonella qPCR assay described in example 1 or a Lactate Dehydrogenase (LDH) assay using either UPEC 099 or Staphylococcus aureus 81M. For the LDH assay the dried cell-free supernatant was resuspended into 5 mL of lysogeny broth and inoculated with either UPEC 099 or Staphylococcus aureus 81M and incubated for 4 hours. After incubation, the samples were centrifuged and the supernatant was assayed. A 100 μL aliquot of supernatant was added to 1 mL mammalian HT29 cells at 1×10^6 cells per mL in a 12-well plate. The samples were incubated for 45 minutes at 37° C. and 5% CO2. The supernatant was then assayed using the manufacture's protocol (Pierce LDH Cytotoxicity assay kit, Thermo Scientific, Rockford, Il, USA). The percent inhibition was calculated using the no treatment control and a detergent lysed control using the formula provided in the protocol (Table 3).

HylA = details: reference GapA, individual synthetic biopeptides, 50 μg per assay
Procedure: The La-5 cell-free supernatant used for these experiments was batch D4. […] Strain 1 alias UPEC99 and strain 2 alias UPEC804. The strains were cultured on LB agar. Two different media were tested LB and artificial urine medium.
The UPEC were grown for 4 hours in the presence of cell-free supernatant. The cells were harvested and the RNA was extracted. The RNA was treated with DNAse I to remove genomic DNA. The RNA was used as a template to make cDNA. The cDNA was assayed by qPCR and the gene expression was normalized to a reference gene and compared to a without cell-free media control.
The synthetic bio-peptides were analyzed at 50 μg per assay.

MRSA = details: after a 24 hour incubation; cited from earlier work

## CO[C@@]1(NC(=O)Cc2cccs2)C(=O)N2C(C(=O)O)=C(COC(N)=O)CS[C@@H]21 [cefoxitin]
[1]; Lysogeny Broth, 0 mg/mL dried cell-free supernatant
  Range of Cefoxitin concentration to inhibition growth to O.D. <0.1: 30 to 40 µg/mL
[1]; Lysogeny Broth, 5 mg/mL dried cell-free supernatant
  Range of Cefoxitin concentration to inhibition growth to O.D. <0.1: 15 to 20 µg/mL
[1]; Lysogeny Broth, 30 mg/mL dried cell-free supernatant
  Range of Cefoxitin concentration to inhibition growth to O.D. <0.1: 15 to 20 µg/mL
[1]; Lysogeny Broth, 60 mg/mL dried cell-free supernatant
  Range of Cefoxitin concentration to inhibition growth to O.D. <0.1: 10 to 15 µg/mL
[1]; Mueller-Hinton Broth, 0 mg/mL dried cell-free supernatant
  Range of Cefoxitin concentration to inhibition growth to O.D. <0.1: 50 to 60 µg/mL
[1]; Mueller-Hinton Broth, 5 mg/mL dried cell-free supernatant
  Range of Cefoxitin concentration to inhibition growth to O.D. <0.1: 40 to 50 µg/mL
[1]; Mueller-Hinton Broth, 30 mg/mL dried cell-free supernatant
  Range of Cefoxitin concentration to inhibition growth to O.D. <0.1: 20 to 30 µg/mL
[1]; Mueller-Hinton Broth, 60 mg/mL dried cell-free supernatant
  Range of Cefoxitin concentration to inhibition growth to O.D. <0.1: 20 to 30 µg/mL
[2]; 0 mg/mL dried cell-free supernatant
  Range of Cefoxitin concentration to inhibition growth to O.D. <0.1: 125 to 175 µg/mL
[2]; 5 mg/mL dried cell-free supernatant
  Range of Cefoxitin concentration to inhibition growth to O.D. <0.1: 50 to 75 µg/mL
[2]; 30 mg/mL dried cell-free supernatant
  Range of Cefoxitin concentration to inhibition growth to O.D. <0.1: 20 to 30 µg/mL
[2]; 60 mg/mL dried cell-free supernatant
  Range of Cefoxitin concentration to inhibition growth to O.D. <0.1: 20 to 30 µg/mL
[3]; MRSA 81M, Lysogeny Broth, 0 mg/mL dried cell-free supernatant
  Range of Cefoxitin concentration to inhibition growth to O.D. <0.1: 75 to 125 µg/mL
[3]; MRSA 81M, Lysogeny Broth, 5 mg/mL dried cell-free supernatant
  Range of Cefoxitin concentration to inhibition growth to O.D. <0.1: 40 to 50 µg/mL
[3]; MRSA 81M, Lysogeny Broth, 30 mg/mL dried cell-free supernatant
  Range of Cefoxitin concentration to inhibition growth to O.D. <0.1: 30 to 40 µg/mL
[3]; MRSA 81M, Lysogeny Broth, 60 mg/mL dried cell-free supernatant
  Range of Cefoxitin concentration to inhibition growth to O.D. <0.1: 30 to 40 µg/mL
[3]; MRSA 81M, Mueller-Hinton Broth, 0 mg/mL dried cell-free supernatant
  Range of Cefoxitin concentration to inhibition growth to O.D. <0.1: 75 to 100 µg/mL
[3]; MRSA 81M, Mueller-Hinton Broth, 5 mg/mL dried cell-free supernatant
  Range of Cefoxitin concentration to inhibition growth to O.D. <0.1: 40 to 50 µg/mL
[3]; MRSA 81M, Mueller-Hinton Broth, 30 mg/mL dried cell-free supernatant
  Range of Cefoxitin concentration to inhibition growth to O.D. <0.1: 30 to 40 µg/mL
[3]; MRSA 81M, Mueller-Hinton Broth, 60 mg/mL dried cell-free supernatant
  Range of Cefoxitin concentration to inhibition growth to O.D. <0.1: 20 to 30 µg/mL
[3]; Staphylococcus aureus 81M, control, cefoxitin only (0 mg/mL), Table 5
  Range of Cefoxitin concentration to inhibition growth to O.D. <0.1: 60 to 75 µg/mL

## CVLPPK
HilA
  Fold down-regulation: 3.75 Fold
HylA
  Fold down-regulation: 3.20 Fold

## HLLPLP
HilA
  Fold down-regulation: 2.93 Fold
HylA
  Fold down-regulation: 2.64 Fold

## LKPTPEGD
HilA
  Fold down-regulation: 11.08 Fold
HylA
  Fold down-regulation: 4.69 Fold

## Lactobacillus acidophilus
MRSA
  MRSA cells eliminated: 99%

## MALPPK
HilA
  Fold down-regulation: 19.56 Fold
HylA
  Fold down-regulation: 9.06 Fold

## YPPGGP
HilA
  Fold down-regulation: 2.93 Fold
HylA
  Fold down-regulation: 3.56 Fold

## YPVEPF
HilA
  Fold down-regulation: 0.68 Fold
HylA
  Fold down-regulation: 1.03 Fold
